# US11452731B2, “Method of treating and preventing loss of cognition” (ENDORECHERCHE, INC., priority 2009, dated 2022)
# “Also recorded” adds a separate entry of the source.
# Tests used:
# [1] = 5-week treatment of ovariectomized rats with SERMs alone or with DHEA: BMD of lumbar spine, femur, tibia (Example 5); type: in vivo, rat; conditions: OVX rats, 5 weeks; for LUMBAR SPINE (L2-L4) BMD / LUMBAR SPINE (L2-L4) Prevention of Bone Loss: SERMs 2.5 mg/kg, DHEA 80 mg/kg
# Protocol: (§1) Ten to twelve week-old female Sprague-Dawley rats (Crl:CD(SD)Br) (Charles River Laboratory, St-Constant, Canada) weighing approximately 220-270 g at start of treatment were used. The animals were acclimatized to the environmental conditions (temperature: 22±3° C.; humidity: 50±20%; 12-h light-12-h dark cycles, lights on at 07:15 h) for at least 1 week before starting the experiments. The animals were housed individually and were allowed free access to tap water and a pelleted certified rodent feed (Lab Diet 5002, Ralston Purina, St-Louis, Mo.). Experiments were conducted in an animal facility approved by the Canadian Council on Animal Care (CCAC) and the Association for Assessment and Accreditation of Laboratory Animal Care (AAALAC) in accordance with the CCAC Guide for Care and Use of Experimental Animals.
# On day 1 of the study, the animals of the appropriate groups were bilaterally ovariectomized (Ovx) under isoflurane anesthesia. The DHEA was applied topically on the dorsal skin as a solution in 50% ethanol-50% propylene glycol while the tested SERMs were administered as suspension in 0.4% methylcellulose by oral gavage. Treatments were initiated on day 2 of the study and were performed once daily during 5 weeks.
# After 5 weeks of treatment, individual rats under Isoflurane anesthesia had their lumbar spine, femur and tibia scanned using dual energy x-ray absorptiometry (DEXA; QDR 4500A, Hologic, Waltham, Mass.) and a Regional High Resolution Scan software. The bone mineral density (BMD) of the lumbar spine (vertebrae L2 to L4), distal femoral metaphysis (DFM) and proximal tibial metaphysis (PTM) were determined.
# [2] = 9-month treatment with DHEA and/or EM-800 in the rat: urinary and serum markers of bone metabolism; type: in vivo
# Description: It is particularly important to indicate that the combination of DHEA and EM-800 exerted unexpected beneficial effects on important biochemical parameters of bone metabolism. […] Moreover, no effect of DHEA could be detected on daily urinary calcium or phosphorus excretion (Luo et al., 1997). EM-800 decreased the urinary hydroxyproline/creatinine ratio by 48% while, similarly to DHEA, no effect of EM-800 was seen on urinary calcium or phosphorus excretion. EM-800, moreover, had no effect on serum alkaline phosphatase activity, a marker of bone formation while DHEA increased the value of the parameter by about 75% (Luo et al., 1997).
# [3] = Uterine, vaginal and body weight in estrone-supplemented OVX nude mice (Example 1); type: in vivo
# Protocol: DHEA was dissolved in 50% ethanol 50% propylene glycol. […] Tumors were measured once a week with Vernier calipers.
# [4] = 3-month treatment of ovariectomized rats: lumbar spine BMD, total body fat, serum cholesterol, ALP (Example 4, experiment 1); type: in vivo, rat; conditions: OVX rats, 3 months; for LUMBAR SPINE BMD / LUMBAR SPINE Prevention of Bone Loss: E2 1 mg/kg, EM-652.HCl 2.5 mg/kg, DHEA 80 mg/kg
# Protocol: as §1
# On day 1 of the study, the animals of the appropriate groups were bilaterally ovariectomized (OVX) under isoflurane anesthesia. The DHEA was applied topically on the dorsal skin as a solution in 50% ethanol-50% propylene glycol while the other tested compounds were administered as suspension in 0.4% methylcellulose by oral gavage. Treatments were initiated on day 2 of the study and were performed once daily during 3 months.
# After 3 months (experiment 1) or 26 weeks (experiment 2) of treatment, individual rats under Isoflurane anesthesia had their whole body skeleton and lumbar spine scanned using dual energy x-ray absorptiometry (DEXA; QDR 4500A, Hologic, Waltham, Mass.) and a Regional High Resolution Scan software. The bone mineral density (BMD) of the lumbar spine (vertebrae L2 to L4) and the total body composition (fat percentage) were determined.
# After 3 months (experiment 1) or 26 weeks (experiment 2) of treatment, blood samples were collected at the jugular vein from overnight fasted animals (under Isoflurane anesthesia). Samples were processed for serum preparation and frozen at −80° C. until assay. Serum cholesterol levels and alkaline phospatase activity (ALP) were determined using the Boehringer Mannheim Diagnostic Hitachi 911 Analyzer (Boehringer Mannheim Diagnostic Laboratory Systems).
# [5] = 26-week treatment of ovariectomized rats: lumbar spine BMD, total body fat, serum cholesterol, ALP (Example 4, experiment 2); type: in vivo, rat; conditions: OVX rats, 26 weeks
# Protocol: Ten to twelve week-old female Sprague-Dawley rats (Crl:CD(SD)Br) (Charles River Laboratory, St-Constant, Canada) weighing approximately 220-270 g at start of treatment were used. […] The animals were housed individually and were allowed free access to tap water and a pelleted certified rodent feed (Lab Diet 5002, Ralston Purina, St-Louis, Mo.). Experiments were conducted in an animal facility approved by the Canadian Council on Animal Care (CCAC) and the Association for Assessment and Accreditation of Laboratory Animal Care (AAALAC) in accordance with the CCAC Guide for Care and Use of Experimental Animals. […] Treatments were initiated on day 2 of the study and were performed once daily during 26 weeks. In both experiments, animals not receiving a test article were treated with the appropriate vehicle alone during the same period. […] QDR 4500A, Hologic, Waltham, Mass.) and a Regional High Resolution Scan software. […] Samples were processed for serum preparation and frozen at -80° C. until assay. Serum cholesterol levels and alkaline phospatase activity (ALP) were determined using the Boehringer Mannheim Diagnostic Hitachi 911 Analyzer (Boehringer Mannheim Diagnostic Laboratory Systems).
# [6] = DHEA 10 mg, EM-800 75 μg, alone or combined
# [7] = Premarin 0.25 mg/kg, SERMs 2.5 mg/kg
smiles,measurement,setting,value
"C[C@]12CC[C@H](O)CC1=CC[C@@H]1[C@@H]2CC[C@]2(C)C(=O)CC[C@@H]12 [DHEA, dehydroepiandrosterone]",DISTAL FEMORAL METAPHYSIS (DFM) BMD,[1],0.2934 ± 0.0046 g/cm^2
same,DISTAL FEMORAL METAPHYSIS (DFM) Prevention of Bone Loss,[1],71%
same,PROXIMAL TIBIAL METAPHYSIS (PFM) BMD,[1],0.2672 ± 0.0041 g/cm^2
same,PROXIMAL TIBIAL METAPHYSIS (PFM) Prevention of Bone Loss,[1],42%
same,LUMBAR SPINE (L2-L4) BMD,[1],0.2144 ± 0.0028 g/cm^2
same,LUMBAR SPINE (L2-L4) Prevention of Bone Loss,[1],44%
same,decrease of urinary hydroxyproline/creatinine ratio (marker of bone resorption),[2],did not affect; also recorded: did not show any effect
same,effect on daily urinary calcium or phosphorus excretion,[2],no effect
same,increase of serum alkaline phosphatase activity (marker of bone formation),[2],about 75%
same,Serum tALP,[2]; [6],198.38 ± 30.76 IU/L
same,Urine HP/Cr,[2]; [6],14.02 ± 1.59 μmol/mmol
same,Urine calcium,[2]; [6],25.87 ± 3.54 μmol/24 h/100 g
same,Urine phosphorus,[2]; [6],151.41 ± 14.57 μmol/24 h/100 g
same,effect on body weight adjusted for tumor weight,[3]; 9.5 months,No significant effect
same,inhibition of the stimulatory effect of estrone on uterine weight,[3]; highest dose of DHEA used,26%
same,ALP (serum alkaline phosphatase activity),[4],224±18 IU/L
same,CHOLESTEROL (serum),[4],1.59 ± 0.10 mmol/L
same,TOTAL FAT,[4],17.3 ± 1.5 %
same,LUMBAR SPINE BMD,[4],0.2321 ± 0.0034 g/cm^2
same,LUMBAR SPINE Prevention of Bone Loss,[4],43%
"CC1=C(c2ccc(O)cc2)[C@H](c2ccc(OCCN3CCCCC3)cc2)Oc2cc(O)ccc21.Cl [EM-652.HCl, (S)-(+)-7-hydroxy-3-(4′-hydroxyphenyl)-4-methyl-2-(4″-(2′″-piperidinoethoxy)phenyl)-2H-1-benzopyran hydrochloride]",ALP,[5],78 ± 4 IU
same,CHOLESTEROL (serum),[5],0.98 ± 0.06 mmol/L
same,TOTAL FAT,[5],27.7 ± 1.4 %
same,reversal of the fat increase induced by estrogen deficiency,[5],78%
same,LUMBAR SPINE BMD,[5]; [7],0.2311 ± 0.0040 g/cm^2
same,LUMBAR SPINE Prevention of Bone Loss,[5]; [7],62%
same,DISTAL FEMORAL METAPHYSIS (DFM) BMD,[1],0.3008 ± 0.0055 g/cm^2
same,DISTAL FEMORAL METAPHYSIS (DFM) Prevention of Bone Loss,[1],95%
same,PROXIMAL TIBIAL METAPHYSIS (PFM) BMD,[1],0.2806 ± 0.0035 g/cm^2
same,PROXIMAL TIBIAL METAPHYSIS (PFM) Prevention of Bone Loss,[1],92%
same,LUMBAR SPINE (L2-L4) BMD,[1],0.2232 ± 0.0031 g/cm^2
same,LUMBAR SPINE (L2-L4) Prevention of Bone Loss,[1],86%
same,ALP (serum alkaline phosphatase activity),[4],91 ± 6 IU/L
same,CHOLESTEROL (serum),[4],0.87 ± 0.04 mmol/L
same,LUMBAR SPINE BMD,[4],0.2374 ± 0.0027 g/cm^2
same,LUMBAR SPINE Prevention of Bone Loss,[4],65%
same,TOTAL FAT,[4]; hydrochloride,completely prevented
same,TOTAL FAT,"[4]; listed as EM-652•HCl, hydrochloride",23.2 ± 1.4 %
